The results in this text go back to patent US20050090428A1, “Porphyrins with virucidal activity” (priority 2002, published 2005).

The target in test [1] is T1, HIV-1 Env protein (HXB2 Env) (Human immunodeficiency virus type 1 group M subtype B, UniProt P04578).
T1 construct: expressed in transfected cells; host or cells: 293T cells transfected with pIIIenv3-1 plus pCMVTAT; cocultured with 3T3 cells expressing CD4 and CXCR4
In kind it is cell-based.

For test [2], the target named is 89.6 Env (Human immunodeficiency virus type 1 group M subtype B, UniProt Q73372). In kind it is cell-based, HIV-1.
89.6 Env, sequence (Q73372 32-719 limits assumed): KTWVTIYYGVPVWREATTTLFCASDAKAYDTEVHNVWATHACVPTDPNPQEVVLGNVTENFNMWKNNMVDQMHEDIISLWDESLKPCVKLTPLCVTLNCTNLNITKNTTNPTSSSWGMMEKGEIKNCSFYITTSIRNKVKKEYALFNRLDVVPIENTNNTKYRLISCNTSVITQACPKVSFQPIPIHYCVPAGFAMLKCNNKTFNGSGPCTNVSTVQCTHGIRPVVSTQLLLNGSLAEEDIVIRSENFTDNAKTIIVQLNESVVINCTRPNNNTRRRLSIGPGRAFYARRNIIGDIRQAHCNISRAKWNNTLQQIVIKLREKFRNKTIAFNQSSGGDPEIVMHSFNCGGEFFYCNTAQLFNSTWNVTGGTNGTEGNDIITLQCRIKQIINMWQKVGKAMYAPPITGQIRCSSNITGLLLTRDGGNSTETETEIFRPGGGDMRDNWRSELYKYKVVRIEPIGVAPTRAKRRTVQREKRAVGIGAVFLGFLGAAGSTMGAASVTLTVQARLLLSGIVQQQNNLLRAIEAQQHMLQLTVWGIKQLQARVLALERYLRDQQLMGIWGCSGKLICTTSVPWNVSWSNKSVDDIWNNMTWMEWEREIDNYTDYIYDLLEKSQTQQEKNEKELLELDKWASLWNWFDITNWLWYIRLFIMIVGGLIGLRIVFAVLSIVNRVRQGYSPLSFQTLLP
89.6 Env, sequence (Q73372 509-719 partner limits assumed): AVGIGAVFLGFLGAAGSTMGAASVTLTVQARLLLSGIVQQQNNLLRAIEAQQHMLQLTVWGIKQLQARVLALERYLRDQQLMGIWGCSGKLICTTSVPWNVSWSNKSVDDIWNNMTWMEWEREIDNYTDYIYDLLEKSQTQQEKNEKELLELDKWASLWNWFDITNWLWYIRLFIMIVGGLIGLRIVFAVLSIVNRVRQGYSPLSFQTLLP
Test [3] deals with HSV-1(F) or HSV-2(G). The test can be described thus: In vitro HSV inactivation, plaque assay on Vero cells. In kind it is cell-based, herpes simplex virus. Particulars: room temperature, in the dark, up to 60 minutes. As to the method: Either HSV-1(F) or HSV-2(G) (10^7 pfu) was mixed with 1 ml of porphyrin at the concentration indicated in Dulbecco's modified Eagle's medium (DME) with 1% newborn calf serum. All assays were performed in duplicate. All tubes were wrapped in foil to keep out light, and ambient room light was reduced as much as was practicable. Virus and porphyrin were incubated together at room temperature for times up to 60 minutes (Table 2). Following incubation, 10 fold serial dilutions were performed in DME with 1% newborn serum, using tubes wrapped in foil. Virus was diluted 20,000 fold and plated on Vero cells. Following a 2 hour incubation with the cells, the inoculum was removed and cells were overlaid with DME with 1% newborn calf serum and 0.2% human gamma globulin. Cells were fixed and stained, and plaques counted, 2 days after infection.

Test [4] has as its system HIV-1 IIIB. Put plainly: Screening for virucidal activity against HIV-1 IIIB, MAGI cell assay. To be noted: for inhibition of HIV-1 IIIB (percent virus inactivated), screening assay: 50 μg/ml, 1 hr in the dark, diluted 10-fold, MAGI cells, without removal of free compound; for activity against HIV in words: MAGI screening assay, HIV-1 IIIB.
Test [5] has as its target IIIB Env of HIV 1 (Human immunodeficiency virus type 1 group M subtype B, UniProt P03375). Type of test: cell-based.
In test [6] the target is T2, binding of HIV-1 IIIB gp120 to CD4 (Human immunodeficiency virus type 1 group M subtype B, UniProt P04578).
T2 construct: The recombinant IIB gp120 protein (baculovirus-expressed) was obtained from Intracel; purchased Intracel (Cambridge, Mass.) for gp120; host or cells: baculovirus-expressed (gp120)
The test can be described thus: gp120-CD4 binding assay (ELISA). Particulars: 1 hr at room temperature. As to the method: To investigate the possible effect of porphyrin compounds on binding of HIV-1 IIIB gp120 to CD4, a gp120 CD4 binding assay was developed. The assay was developed as a modification of a capture gp120 ELISA kit (Intracel Corporation). Briefly, a 96-well plate was coated with soluble CD4 and 0.5 μg of HIV-1 IIIB gp120 per well was incubated in the presence or absence of test compounds for 1 hr at room temperature. After four washes with buffer to remove unbound proteins, the bound gp120 was detected by anti-gp120 peroxidase-conjugated antibodies and quantitated by the protocol provided by the manufacturer.
(In general: ELISA stands for enzyme-linked immunosorbent assay.)

In the case of `O=S(=O)(O)c1ccc(-c2c3nc(c(-c4ccc(S(=O)(=O)O)cc4)c4ccc([n-]4)c(-c4ccc(S(=O)(=O)O)cc4)c4nc(c(-c5ccc(S(=O)(=O)O)cc5)c5ccc2[n-]5)C=C4)C=C3)cc1.[Pd+2]` [TPPS4,Pd], the “Presence of nuclei in syncytia, pIIIenv X4, 6 h” value (“Presence … pIIIenv X4, 6 h” for short) in test [1] was “−”. For the same molecule, in test [2], the “Presence of nuclei in syncytia, VV89.6 envt R5, 6 h” value (“Presence … VV89.6 envt R5, 6 h” for short) was “−/4+”; the “Presence of nuclei in syncytia, VV89.6 envt R5, 23 h” value (“Presence … VV89.6 envt R5, 23 h” for short) is listed as “−/4+ (key: 4+: more than 50% of nuclei are in syncytia; 3+: 30 to 50% of nuclei are in syncytia; 2+: 30 to 10% of nuclei are in syncytia; +: less than 10% of nuclei are in syncytia; −: no syncytia were observed)”; the “Presence of nuclei in syncytia, VV89.6 envt X4, 6 h” value (“Presence … VV89.6 envt X4, 6 h” below) is on record as “−/4+”; the “Presence of nuclei in syncytia, VV89.6 envt X4, 23 h” value (“Presence … VV89.6 envt X4, 23 h” below) is “−/4+ (key: 4+: more than 50% of nuclei are in syncytia; 3+: 30 to 50% of nuclei are in syncytia; 2+: 30 to 10% of nuclei are in syncytia; +: less than 10% of nuclei are in syncytia; −: no syncytia were observed)”.

As for `O=C(O)c1ccc(-c2c3nc(c(-c4ccc(C(=O)O)cc4)c4ccc([nH]4)c(-c4ccc(C(=O)O)cc4)c4nc(c(-c5ccc(C(=O)O)cc5)c5ccc2[nH]5)C=C4)C=C3)cc1` [TPPC4], the “inactivating HSVs” value in test [3] is recorded as “active”.

Consider `Cc1cc(C)c(S(=O)(=O)O)c(C)c1-c1c2nc(c(-c3c(C)cc(C)c(S(=O)(=O)O)c3C)c3ccc([n-]3)c(-c3c(C)cc(C)c(S(=O)(=O)O)c3C)c3nc(c(-c4c(C)cc(C)c(S(=O)(=O)O)c4C)c4ccc1[n-]4)C=C3)C=C2.[Co+2]` [TMPS,Co], for which the “inhibition of HIV-1 IIIB (percent virus inactivated), screening assay” value in test [4] is listed as “about 80%”. The “inactivating HSVs” value in test [3] was “active”.

Regarding sulfonated 2-fluoroTPP [TPP2FS], the “inhibition of HIV-1 IIIB (percent virus inactivated), screening assay” value in test [4] was “about 80%”. For the same molecule, in test [5], the “Presence of nuclei in syncytia, VVenvl X4, 6 h” value was “−/4+” and the “Presence of nuclei in syncytia, VVenvl X4, 23 h” value is “−/4+ (key: 4+: more than 50% of nuclei are in syncytia; 3+: 30 to 50% of nuclei are in syncytia; 2+: 30 to 10% of nuclei are in syncytia; +: less than 10% of nuclei are in syncytia; −: no syncytia were observed)”. Besides, in test [1], the “Presence … pIIIenv X4, 6 h” value is listed as “−”. Moreover, the “inhibition of gp120/CD4 binding” value in test [6] is 81%. Moreover, in test [2], the “Presence … VV89.6 envt R5, 6 h” value is on record as 4+/4+ (key: 4+: more than 50% of nuclei are in syncytia; 3+: 30 to 50% of nuclei are in syncytia; 2+: 30 to 10% of nuclei are in syncytia; +: less than 10% of nuclei are in syncytia; −: no syncytia were observed); the “Presence … VV89.6 envt R5, 23 h” value was 4+/4+ (key: 4+: more than 50% of nuclei are in syncytia; 3+: 30 to 50% of nuclei are in syncytia; 2+: 30 to 10% of nuclei are in syncytia; +: less than 10% of nuclei are in syncytia; −: no syncytia were observed); the “Presence … VV89.6 envt X4, 23 h” value is given as 1+/4+ (key: 4+: more than 50% of nuclei are in syncytia; 3+: 30 to 50% of nuclei are in syncytia; 2+: 30 to 10% of nuclei are in syncytia; +: less than 10% of nuclei are in syncytia; −: no syncytia were observed). For the same molecule, the “inactivating HSVs” value in test [3] is “active”.

Turning to `O=S(=O)(O)c1ccc(-c2c3nc(c(-c4ccc(S(=O)(=O)O)cc4)c4ccc([nH]4)c(-c4ccc(S(=O)(=O)O)cc4)c4nc(c(-c5ccc(S(=O)(=O)O)cc5)c5ccc2[nH]5)C=C4)C=C3)cc1` [TPPS4, mesotetra(4-sulfonatophenyl)porphine], in test [4], the “inhibition of HIV-1 IIIB (percent virus inactivated), screening assay” value came to 93%. The “Presence … pIIIenv X4, 6 h” value in test [1] is on record as “−”. Moreover, in test [2], the “Presence … VV89.6 envt R5, 23 h” value was 1+/4+ (key: 4+: more than 50% of nuclei are in syncytia; 3+: 30 to 50% of nuclei are in syncytia; 2+: 30 to 10% of nuclei are in syncytia; +: less than 10% of nuclei are in syncytia; −: no syncytia were observed); the “Presence … VV89.6 envt X4, 6 h” value is on record as “−/4+”; the “Presence … VV89.6 envt X4, 23 h” value was “−/4+ (key: 4+: more than 50% of nuclei are in syncytia; 3+: 30 to 50% of nuclei are in syncytia; 2+: 30 to 10% of nuclei are in syncytia; +: less than 10% of nuclei are in syncytia; −: no syncytia were observed)”.

For `O=S(=O)(O)c1ccc(-c2c3nc(c(-c4ccc(S(=O)(=O)O)cc4)c4ccc([n-]4)c(-c4ccc(S(=O)(=O)O)cc4)c4ccc([n-]4)c(-c4ccc(S(=O)(=O)O)cc4)c4nc2C=C4)C=C3)cc1.[Ni+2]` [TPPS4,Ni], in test [2], the “Presence … VV89.6 envt R5, 6 h” value is given as “−/1+”; the “Presence … VV89.6 envt X4, 6 h” value is given as “−/3+”; the “Presence … VV89.6 envt X4, 23 h” value is reported as “−/3+ (key: 4+: more than 50% of nuclei are in syncytia; 3+: 30 to 50% of nuclei are in syncytia; 2+: 30 to 10% of nuclei are in syncytia; +: less than 10% of nuclei are in syncytia; −: no syncytia were observed)”.

As for `O=S(=O)(O)c1ccc(Cl)c(-c2c3nc(c(-c4c(Cl)ccc(S(=O)(=O)O)c4Cl)c4ccc([nH]4)c(-c4c(Cl)ccc(S(=O)(=O)O)c4Cl)c4nc(c(-c5c(Cl)ccc(S(=O)(=O)O)c5Cl)c5ccc2[nH]5)C=C4)C=C3)c1Cl` [tetrakis(2,6dichlorosulfonatonatophenyl)porphyrin], the “inactivating HSVs” value in test [3] is reported as “active”.

Regarding “tetrakis(2-chlorosulfonatophenyl)porphyrin”, in test [3], the “inactivating HSVs” value is given as “active”.

Consider sulfonated 4-chloroTPP [TPP4ClS], for which, in test [4], the “inhibition of HIV-1 IIIB (percent virus inactivated), screening assay” value is “about 97%” and the “activity against HIV in words” value was “most active”. The “inhibition of gp120/CD4 binding” value in test [6] was found to be 85%.

Regarding `O=S(=O)(O)c1ccc(-c2c3nc(c(-c4ccc(S(=O)(=O)O)cc4)c4ccc([nH]4)c(-c4ccc(S(=O)(=O)O)cc4)c4nc(c(-c5ccccc5)c5ccc2[nH]5)C=C4)C=C3)cc1.[Cu]` [TPPS3,Cu], in test [3], the “inactivating HSVs” value is “active”.

Turning to “sulfonated 2,6-difluoroTPP [TPP(2,6-F2)S]”, the “activity against HIV in words” value in test [4] is recorded as “most active”. Moreover, the “Presence … pIIIenv X4, 6 h” value in test [1] was “−”. Besides, in test [6], the “inhibition of gp120/CD4 binding in words” value is recorded as “completely inhibit binding”. Also, in test [2], the “Presence … VV89.6 envt R5, 23 h” value is 1+/4+ (key: 4+: more than 50% of nuclei are in syncytia; 3+: 30 to 50% of nuclei are in syncytia; 2+: 30 to 10% of nuclei are in syncytia; +: less than 10% of nuclei are in syncytia; −: no syncytia were observed) and the “Presence … VV89.6 envt X4, 23 h” value is 1+/4+ (key: 4+: more than 50% of nuclei are in syncytia; 3+: 30 to 50% of nuclei are in syncytia; 2+: 30 to 10% of nuclei are in syncytia; +: less than 10% of nuclei are in syncytia; −: no syncytia were observed). Moreover, in test [3], the “inactivating HSVs” value is “active”.

As to `O=S(=O)(O)c1ccc(-c2c3nc(c(-c4ccc(S(=O)(=O)O)cc4)c4ccc([nH]4)c(-c4ccc(S(=O)(=O)O)cc4)c4nc(c(-c5ccc(S(=O)(=O)O)cc5)c5ccc2[nH]5)C=C4)C=C3)cc1.[Zn]` [TPPS4,Zn], in test [3], the “inactivating HSVs” value is “active”.

Consider `O=S(=O)(O)c1ccc(C2=C3C=CC(=N3)[C-](c3ccc(S(=O)(=O)O)cc3)C3=NC(=C(c4ccc(S(=O)(=O)O)cc4)c4[cH-]cc(n4)C(c4ccc(S(=O)(=O)O)cc4)=C4C=CC2=N4)C=C3)cc1.[Cu+2]` (stereo not shown) [TPPS4,Cu], for which, in test [4], the “inhibition of HIV-1 IIIB (percent virus inactivated), screening assay” value is listed as 97% and the “activity against HIV in words” value is reported as “intermediate levels of activity”. The “inhibition of HIV-induced cell fusion in words” value in test [5] was “Complete inhibition”. Besides, the “Presence … pIIIenv X4, 6 h” value in test [1] is reported as “−”. Also, the “inhibition of gp120/CD4 binding” value in test [6] was 80-100%. Moreover, the “inactivating HSVs” value in test [3] is “active”.

Take “tetrakis(2-fluorosulfonatonatophenyl)porphyrin,Cu”: in test [3], the “inactivating HSVs” value is “active”.

As for `O=S(=O)(O)c1ccc(-c2c3nc(c(-c4ccc(S(=O)(=O)O)cc4)c4ccc([nH]4)c(-c4ccc(S(=O)(=O)O)cc4)c4nc(c(-c5ccccc5)c5ccc2[nH]5)C=C4)C=C3)cc1.[Zn]` [TPPS3,Zn], the “inactivating HSVs” value in test [3] is listed as “active”.
